Measurements taken from ChEMBL document CHEMBL3885861, “Open TG-GATES”.

Organism: Rattus norvegicus
Assay: Open TG-GATES - Regimen: Single
Format: toxicity, organism-based, Sprague-Dawley
Parameters: regimen Single, gender Male, age 6 weeks
Details: in vivo, po, 0 mg/kg, route gavage, dose level Control; for APTT / Bas / Eos / Fbg / Hb / Ht / Lym / MCH / MCHC / MCV / Mono / Neu / PT / Plat / RBC / Ret / WBC: tissue Blood; for KIDNEY_L / KIDNEY_R / KIDNEY_TOTAL: tissue Kidney; for LIVER: tissue Liver; for A/G / ALP / ALT / AST / BUN / CRE / Ca / Cl / DBIL / GLC / IP / K / LDH / Na / PL / RALB / TBIL / TC / TG / TP / gamma-GTP: tissue Plasma

CCCc1cc(=O)[nH]c(=S)[nH]1 [PROPYLTHIOURACIL]
TERMINAL_BW (3 h): 182.7 g
APTT (3 h): 15.8 s
Bas (3 h): 0%
Eos (3 h): 1%
Fbg (3 h): 217.4 mg/dL
Hb (3 h): 13.2 g/dL
Ht (3 h): 39.8%
Lym (3 h): 78.6%
MCH (3 h): 22.3 pg
MCHC (3 h): 33.3%
MCV (3 h): 67.1 fL
Mono (3 h): 6.2%
Neu (3 h): 14.6%
PT (3 h): 12.6 s
Plat (3 h): 108.3 x10_4/uL
RBC (3 h): 593.2 x10_4/ul
Ret (3 h): 10.7%
WBC (3 h): 86.3 x10_2/uL
KIDNEY_L (3 h): 0.8 g
KIDNEY_R (3 h): 0.8 g
KIDNEY_TOTAL (3 h): 1.7 g
LIVER (3 h): 8.7 g
A/G (3 h): 2
ALP (3 h): 886.8 IU/L
ALT (3 h): 39.6 IU/L
AST (3 h): 69.8 IU/L
BUN (3 h): 13.2 mg/dL
CRE (3 h): 0.4 mg/dL
Ca (3 h): 11 mg/dL
Cl (3 h): 105 meq/L
DBIL (3 h): 0.024 mg/dL
GLC (3 h): 192.6 mg/dL
IP (3 h): 9.9 mg/dL
K (3 h): 5 meq/L
LDH (3 h): 87.6 IU/L
Na (3 h): 138.6 meq/L
PL (3 h): 140.2 mg/dL
RALB (3 h): 3.6 g/dL
TBIL (3 h): 0.3 mg/dL
TC (3 h): 82.4 mg/dL
TG (3 h): 37.2 mg/dL
TP (3 h): 5.5 g/dL
gamma-GTP (3 h): 0.8 IU/L
TERMINAL_BW (6 h): 178.3 g
APTT (6 h): 16.1 s
Bas (6 h): 0%
Eos (6 h): 0%
Fbg (6 h): 206.8 mg/dL
Hb (6 h): 13 g/dL
Ht (6 h): 39.3%
Lym (6 h): 80%
MCH (6 h): 21.5 pg
MCHC (6 h): 33.1%
MCV (6 h): 64.8 fL
Mono (6 h): 6.4%
Neu (6 h): 13.6%
PT (6 h): 12.6 s
Plat (6 h): 107.1 x10_4/uL
RBC (6 h): 606.2 x10_4/ul
Ret (6 h): 10.4%
WBC (6 h): 111.4 x10_2/uL
KIDNEY_L (6 h): 0.8 g
KIDNEY_R (6 h): 0.8 g
KIDNEY_TOTAL (6 h): 1.6 g
LIVER (6 h): 7.9 g
A/G (6 h): 2.2
ALP (6 h): 853.4 IU/L
ALT (6 h): 34.2 IU/L
AST (6 h): 66.8 IU/L
BUN (6 h): 11.8 mg/dL
CRE (6 h): 0.5 mg/dL
Ca (6 h): 10.7 mg/dL
Cl (6 h): 105.2 meq/L
DBIL (6 h): 0.046 mg/dL
GLC (6 h): 182 mg/dL
IP (6 h): 10 mg/dL
K (6 h): 5 meq/L
LDH (6 h): 82.2 IU/L
Na (6 h): 137.6 meq/L
PL (6 h): 136.6 mg/dL
RALB (6 h): 3.6 g/dL
TBIL (6 h): 0.3 mg/dL
TC (6 h): 80 mg/dL
TG (6 h): 33.4 mg/dL
TP (6 h): 5.4 g/dL
gamma-GTP (6 h): 1.8 IU/L
TERMINAL_BW (9 h): 175.9 g
APTT (9 h): 16 s
Bas (9 h): 0%
Eos (9 h): 1.2%
Fbg (9 h): 215.4 mg/dL
Hb (9 h): 13.1 g/dL
Ht (9 h): 39.7%
Lym (9 h): 77.8%
MCH (9 h): 22 pg
MCHC (9 h): 33.1%
MCV (9 h): 66.2 fL
Mono (9 h): 6.2%
Neu (9 h): 15.2%
PT (9 h): 12.5 s
Plat (9 h): 107.3 x10_4/uL
RBC (9 h): 599.2 x10_4/ul
Ret (9 h): 10.2%
WBC (9 h): 95.1 x10_2/uL
KIDNEY_L (9 h): 0.8 g
KIDNEY_R (9 h): 0.9 g
KIDNEY_TOTAL (9 h): 1.7 g
LIVER (9 h): 7.6 g
A/G (9 h): 2
ALP (9 h): 741.2 IU/L
ALT (9 h): 33.6 IU/L
AST (9 h): 61.8 IU/L
BUN (9 h): 13.8 mg/dL
CRE (9 h): 0.5 mg/dL
Ca (9 h): 10.6 mg/dL
Cl (9 h): 107.4 meq/L
DBIL (9 h): 0.006 mg/dL
GLC (9 h): 195.4 mg/dL
IP (9 h): 11.1 mg/dL
K (9 h): 5.2 meq/L
LDH (9 h): 102.4 IU/L
Na (9 h): 139.8 meq/L
PL (9 h): 132.2 mg/dL
RALB (9 h): 3.6 g/dL
TBIL (9 h): 0.4 mg/dL
TC (9 h): 76 mg/dL
TG (9 h): 35.6 mg/dL
TP (9 h): 5.5 g/dL
gamma-GTP (9 h): 2.2 IU/L
TERMINAL_BW (24 h): 192.6 g
APTT (24 h): 16.1 s
Bas (24 h): 0%
Eos (24 h): 1%
Fbg (24 h): 211.2 mg/dL
Hb (24 h): 13.2 g/dL
Ht (24 h): 40%
Lym (24 h): 76.6%
MCH (24 h): 21.6 pg
MCHC (24 h): 33%
MCV (24 h): 65.5 fL
Mono (24 h): 9%
Neu (24 h): 13.6%
PT (24 h): 12.4 s
Plat (24 h): 104.6 x10_4/uL
RBC (24 h): 611.6 x10_4/ul
Ret (24 h): 9.6%
WBC (24 h): 123.5 x10_2/uL
KIDNEY_L (24 h): 0.8 g
KIDNEY_R (24 h): 0.9 g
KIDNEY_TOTAL (24 h): 1.7 g
LIVER (24 h): 9.1 g
A/G (24 h): 2
ALP (24 h): 974.2 IU/L
ALT (24 h): 46.2 IU/L
AST (24 h): 70.2 IU/L
BUN (24 h): 19.2 mg/dL
CRE (24 h): 0.6 mg/dL
Ca (24 h): 10.9 mg/dL
Cl (24 h): 105.2 meq/L
DBIL (24 h): 0.016 mg/dL
GLC (24 h): 196.6 mg/dL
IP (24 h): 7.9 mg/dL
K (24 h): 5 meq/L
LDH (24 h): 86.6 IU/L
Na (24 h): 138.6 meq/L
PL (24 h): 152.8 mg/dL
RALB (24 h): 3.7 g/dL
TBIL (24 h): 0.3 mg/dL
TC (24 h): 83.2 mg/dL
TG (24 h): 96.2 mg/dL
TP (24 h): 5.6 g/dL
gamma-GTP (24 h): 2.4 IU/L
